Like-named read-outs stand apart in the source and are kept apart here. No end group written: not given here.
What was measured:
[1] = system: K12 E. coli; format: cell-based
Method: The antimicrobial activities of the peptides and their acetylated derivatives may be assessed using K-12 E. coli and assays based on an existing protocol used to study derivatives of hBD-3. The bacteria may be grown to mid-log phase in Luria Bertani (LB) broth. Aliquots of the culture may then be diluted (to a cell density of about 10^6 CFU/ml) into 10 mM sodium phosphate at a pH of about 7.5. Each of the aliquots may contain varied concentrations of peptide or acetylated peptide. The diluted bacterial cultures may then be incubated for about 2 hours at a temperature of about 37° C. After the proscribed time, serial dilutions of the assay cultures may be plated onto LB agar plates, and then allowed to incubate overnight at a temperature of about 37° C. After incubating, colonies may be counted. Dose-response curves may be prepared to calculate EC50's.
The antibacterial activities of the free and acetylated peptides may be determined using K12 E. coli and a known assay protocol. Bacteria may be incubated in Luria Bertani broth at 37° C. until reaching an OD600 of ˜0.8-˜1.1. Cell density may be monitored using optical density at 600 nm. Cells were then diluted to a concentration of 10^6 CFU/ml in ˜10 mM sodium phosphate (pH ˜7.5), containing varied concentrations of peptide or acetylated peptide. Peptide concentration used in the assays may range from 0 μg/ml to ˜100 μg/ml with intermediate concentrations varied for each peptide in order to maximize the number of data points in or near the transition region.
Assay cultures may be incubated at 37° C. for about two hours. Afterwards, serial dilutions of each assay culture may be prepared and then plated in triplicate onto Luria Bertani broth plates. The plates may be incubated at 37° C. overnight (˜16 h). Colonies may be counted the following morning.
Bacterial survival at each peptide concentration may be calculated according to the ratio of the number of colonies on the plates corresponding to the peptide concentration and the average number of colonies observed for assay cultures lacking peptide. The peptide concentration required to kill ˜50% of tile viable E. coli in the assay cultures (EC50) may be determined by plotting percent survival as a function of the log of peptide concentration (log μg/ml) and fitting the data, using GraphPad Prism (GraphPad Software, Inc., San Diego, Calif.), to Equation (1), which describes a sigmoidal dose-response.
In Equation (1), S is percent survival, ST and SB represent the upper and lower survival boundaries, X is the log of the peptide concentration, and H is the Hill slope of the transition region.
In fitting the data for all peptides and acetylated peptides (except acetylated Pep-1 and acetylated Pep-3), ST and SB may be restricted to values≦100% and ≧0% respectively. For acetylated Pep-1 and acetylated Pep-3, the absence of data points defining the lower boundary necessitated that SB be set to 0% in order to fit the data to Equation (1) and provide an estimated EC50 for these peptides.

[2] = system: E. coli BL21(DE3)
[3] = system: horse erythrocytes; format: cell-based
Method: Hemolytic activity may be assayed by, for example, incubating horse erythrocytes (e.g., Hemasource Inc. of Eugene, Oreg.). Varied peptide concentrations in phosphate buffered saline (e.g., Cellgro, produced by Mediatech, Inc. of Manassas, Va.) may be used for the incubation process. Hemolysis may be quantified by pelleting cells after incubation using centrifugation, and then measuring the absorbance of the supernatant at about 540 nm.
Hemolytic activities of the free and acetylated peptides may be determined using horse erythrocytes, in an assay adapted to a microtitre plate format. Cells may be prepared by centrifuging ˜1 ml of horse erythrocytes at 1620×g, and then resuspending the pelleted cells in ˜1 ml of 1× Dulbecco's phosphate-buffered saline (Dulbecco's PBS, Mediatech, Manassas, Va.). The cells may then be pelleted again. The process may be repeated (e.g., three more times). Following the final wash, the cells may be resuspended in ˜0.750 ml of PBS. Approximately two hundred microliters of washed erythrocyte suspension may then be diluted into ˜9800 μl of PBS to afford about 2% suspension. Aliquots of sterile water, peptide, and Dulbecco's PBS may then be combined in the wells of a 96 well microtitre plate so as to provide a gradient of peptide concentrations (0, ˜0.1, ˜1, ˜10, ˜100, and ˜1,000 μg/ml), to which the ˜2% erythrocyte may be added. […] An aliquot of supernatant (˜150 μl) from each well may then be transferred to a fresh microtitre plate, and the absorbance at ˜540 nm (heme) may be obtained for each solution. The percent hemolysis may be calculated based on the ratio of the absorption of supernatants from wells containing peptide and the absorption of supernatants from wells containing no peptide. In both cases, the recorded absorption may be adjusted for the background absorption of the plates.
Results of these assays appear in FIG. 21. […] Absorbance at 540 nm was used to monitor the release of hemoglobin by horse erythrocytes that have been incubated with varied concentrations of free peptide or acetylated peptide.

[4] = acetylated peptide, K12 E. coli, 10 mM sodium phosphate pH ~7.5, 2 h 37° C., 90% confidence range in parentheses, ‡ estimated values

| Substance | antimicrobial potency as percent of free Pep-1 ([1]; K12 E. coli, from EC50 values) [%] | hemolytic activity (in words) [3] | Antimicrobial Activity (EC50), Free ([1]; K12, 2 h) | other results |
| --- | --- | --- | --- | --- |
| Ac-RGRK(Ac)SSRRK(Ac)K(Ac)-NH2 [acetylated Pep-3] | – | – | – | Antimicrobial Activity (EC50), Acetylated [1, 4]: ~70 µg/mL |
| Ac-RGRK(Ac)SSRRK(Ac)K(Ac)-OH [acetylated Pep-1] | ~5 | – | – | LC90, Acetylated Peptide [2]: 94.40 µg/mL; decrease in potency relative to free Pep-1 ([1]; K12 E. coli, from EC50 values): sixteen |
| Ac-RGRRSSRRK(Ac)K(Ac)-NH2 [acetylated Pep-4] | ~50 | – | – | LC90, Acetylated Peptide [2]: 1.49 µg/mL; Antimicrobial Activity (EC50), Acetylated ([1]; K12, 2 h): 4.9 (4.2-5.8) μg/ml |
| Ac-RGRRSSRRK(Ac)K(Ac)-OH [acetylated Pep-2] | ~25 | – | – | Antimicrobial Activity (EC50), Acetylated ([1]; K12, 2 h): ~8.1 µg/mL; Antimicrobial Activity (EC50), Acetylated [1, 4]: 8.1 (6.5-9.9) μg/ml |
| RGRKSSRRKK [Pep-1, RGRKSSRRKK (SEQ ID NO:2)] | – | some low-level hemolytic activity | 2.4 (2.2-2.7) μg/ml | LC90, Free Peptide [2]: 2.23 µg/mL |
| RGRKSSRRKK-NH2 [Pep-3, RGRKSSRRKK-NH2 (SEQ ID NO:5)] | – | – | 1.2 (1.1-1.2) μg/ml | – |
| RGRRSSRRKK [Pep-2, RGRRSSRRKK (SEQ ID NO:3)] | – | some low-level hemolytic activity | 1.2 (1.1-1.3) μg/ml | – |
| RGRRSSRRKK-NH2 [Pep-4, RGRRSSRRKK-NH2 (SEQ ID NO:6)] | – | some low-level hemolytic activity | – | LC90, Free Peptide [2]: 0.15 µg/mL |

Reference: patent US9849189B2, “Targeted delivery of antimicrobial agents” (George Mason Research Foundation, Inc., priority 2008, dated 2017)
